Laboratory results reported in patent US20080274892A1, “Novel Haloalkylsulfonanilide Derivative, Herbicide, and Method of Use Thereof” (priority 2005, published 2008).

Tests used:
barnyard glass = assay: Test Example 2: herbicidal efficacy on rice paddy weeds post-emergence; type: in vivo, Echinochloa crus-galli; conditions: 21 days after treatment
In short: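 Plastic pots of 75 cm^2 were filled with clay loam soil and sown with barnyard glass and bulrush seeds, then topped with 75 cm^3 soil containing false pimpernel seeds. The pots were flooded to 5 cm water depth and held in a hot house. Twenty-one days after treatment, herbicidal efficacy was graded against an untreated control.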

bulrush [1] = assay: Test Example 1: herbicidal efficacy on rice paddy weeds pre-emergence; type: in vivo, Scirpus juncoides; conditions: 21 days
[2] = tested on: paddy rice plant (cultivar: Nihonbare); assay: Test Example 3: phytotoxicity test for transplanted paddy rice plant; type: in vivo; conditions: 21 days after treatment; for Phytotoxicity to paddy rice: transplanted rice
In short: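 Clay loam soil was placed in a 75 cm^2 plastic pot and flooded to a water depth of 5 cm. Two Nihonbare paddy rice plants at the two-leaf stage were transplanted 1 cm deep and grown in a hot house. After treatment, pots stayed in the hot house for 21 days, and phytotoxicity was then graded against an untreated control.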

bulrush [3] = assay: Test Example 2: herbicidal efficacy on rice paddy weeds post-emergence; type: in vivo, Scirpus juncoides; conditions: 21 days after treatment
false pimpernel [4] = assay: as above; type: in vivo, Lindernia pyxidaria; conditions: 21 days after treatment
false pimpernel [5] = assay: Test Example 1: herbicidal efficacy on rice paddy weeds pre-emergence; type: in vivo, Lindernia pyxidaria; conditions: 21 days
[6] = dosage 1000 g/ha active ingredient, post-emergence treatment at one leaf stage, vs untreated control
[7] = dosage 1000 g/ha active ingredient, vs untreated control
[8] = dosage 1000 g/ha, post-emergence, one leaf stage
[9] = dosage 1000 g/ha, treated 5 days after transplantation
[10] = dosage 300 g/ha, post-emergence, one leaf stage

| Structure (SMILES) | Burnyard grass post (herbicidal efficacy grade) (barnyard glass; [10]) | Bulrush pre (herbicidal efficacy grade) (bulrush [1]; dosage 300 g/ha) | Phytotoxicity to paddy rice ([2]; dosage 300 g/ha) | Bulrush post (herbicidal efficacy grade) (bulrush [3]; [10]) | False pimpernel post (herbicidal efficacy grade) (false pimpernel [4]; [10]) | False pimpernel pre (herbicidal efficacy grade) (false pimpernel [5]; dosage 300 g/ha) | other results |
| --- | --- | --- | --- | --- | --- | --- | --- |
| CC1(C)CN(Cc2cc3c(cc2NS(=O)(=O)C(F)(F)F)OCO3)C(=O)O1 [1-215] |  |  |  |  |  |  | Burnyard grass post (herbicidal efficacy grade) (barnyard glass; [6]): 1 (1%-39% of herbicidal efficacy or phytotoxicity); Bulrush pre (herbicidal efficacy grade) (bulrush [1]; [7]): 2 (40%-69% of herbicidal efficacy or phytotoxicity); Phytotoxicity to paddy rice (grade) ([2]; dosage 1000 g/ha active ingredient, treated 5 days after transplantation, vs untreated control): 0 (0% of herbicidal efficacy or phytotoxicity); Bulrush post (herbicidal efficacy grade) (bulrush [3]; [6]): 2 (40%-69% of herbicidal efficacy or phytotoxicity); False pimpernel post (herbicidal efficacy grade) (false pimpernel [4]; [6]): 3 (70%-89% of herbicidal efficacy or phytotoxicity); False pimpernel pre (herbicidal efficacy grade) (false pimpernel [5]; [7]): 4 (90%-100% of herbicidal efficacy or phytotoxicity) |
| CCCC1CN(Cc2ccccc2N(C(=O)OCC(C)C)S(=O)(=O)C(F)(F)F)C(=O)O1 (stereo not drawn) [Compound 1-30] |  |  |  |  |  |  | Burnyard grass post (herbicidal efficacy grade) (barnyard glass; [8]): 4 (90%-100% of herbicidal efficacy or phytotoxicity); Bulrush pre (herbicidal efficacy grade) (bulrush [1]; dosage 1000 g/ha): 4 (90%-100% of herbicidal efficacy or phytotoxicity); Phytotoxicity to paddy rice [2, 9]: 0 (0% of herbicidal efficacy or phytotoxicity); Bulrush post (herbicidal efficacy grade) (bulrush [3]; [8]): 4 (90%-100% of herbicidal efficacy or phytotoxicity); False pimpernel post (herbicidal efficacy grade) (false pimpernel [4]; [8]): 4 (90%-100% of herbicidal efficacy or phytotoxicity); False pimpernel pre (herbicidal efficacy grade) (false pimpernel [5]; dosage 1000 g/ha): 4 (90%-100% of herbicidal efficacy or phytotoxicity) |
| COC1N(Cc2ccccc2NS(=O)(=O)C(F)(F)F)C(=O)OC1(C)C (stereo not drawn) [Compound No. 1-195, 4-methoxy-5,5-dimethyl-3-[2-(trifluoromethanesulfonylamino)benzyl]oxazolidin-2-one] | 1 (1%-39% of herbicidal efficacy or phytotoxicity) | 4 (90%-100% of herbicidal efficacy or phytotoxicity) | 2 (40%-69% of herbicidal efficacy or phytotoxicity) | 4 (90%-100% of herbicidal efficacy or phytotoxicity) | 3 (70%-89% of herbicidal efficacy or phytotoxicity) | 1 (1%-39% of herbicidal efficacy or phytotoxicity) |  |
| CC(=O)OCC1CN(Cc2ccccc2N(C(=O)OCC(C)C)S(=O)(=O)C(F)(F)F)C(=O)O1 (stereo not drawn) [Compound 1-38] | 1 (1%-39% of herbicidal efficacy or phytotoxicity) | 3 (70%-89% of herbicidal efficacy or phytotoxicity) | 0 (0% of herbicidal efficacy or phytotoxicity) | 3 (70%-89% of herbicidal efficacy or phytotoxicity) | 1 (1%-39% of herbicidal efficacy or phytotoxicity) | 2 (40%-69% of herbicidal efficacy or phytotoxicity) |  |
| CC(C)COC(=O)N(c1ccccc1CN1CC(CNC(=O)OC(C)(C)C)OC1=O)S(=O)(=O)C(F)(F)F (racemic) [Compound 1-107] | 3 (70%-89% of herbicidal efficacy or phytotoxicity) | 4 (90%-100% of herbicidal efficacy or phytotoxicity) | 0 (0% of herbicidal efficacy or phytotoxicity) | 4 (90%-100% of herbicidal efficacy or phytotoxicity) | 1 (1%-39% of herbicidal efficacy or phytotoxicity) | 4 (90%-100% of herbicidal efficacy or phytotoxicity) |  |
| O=C1OC(c2ccccc2)CN1Cc1ccccc1NS(=O)(=O)C(F)(F)F (stereo not drawn) [Compound 1-41] |  |  |  |  |  |  | Burnyard grass post (herbicidal efficacy grade) (barnyard glass; [8]): 4 (90%-100% of herbicidal efficacy or phytotoxicity); Bulrush pre (herbicidal efficacy grade) (bulrush [1]; dosage 1000 g/ha): 4 (90%-100% of herbicidal efficacy or phytotoxicity); Phytotoxicity to paddy rice [2, 9]: 1 (1%-39% of herbicidal efficacy or phytotoxicity); Bulrush post (herbicidal efficacy grade) (bulrush [3]; [8]): 3 (70%-89% of herbicidal efficacy or phytotoxicity); False pimpernel post (herbicidal efficacy grade) (false pimpernel [4]; [8]): 2 (40%-69% of herbicidal efficacy or phytotoxicity); False pimpernel pre (herbicidal efficacy grade) (false pimpernel [5]; dosage 1000 g/ha): 4 (90%-100% of herbicidal efficacy or phytotoxicity) |
| CC(C)COC(=O)N(c1ccccc1CN1CC(COc2ccccc2)OC1=O)S(=O)(=O)C(F)(F)F (racemic) [Compound 1-52] | 3 (70%-89% of herbicidal efficacy or phytotoxicity) | 4 (90%-100% of herbicidal efficacy or phytotoxicity) | 0 (0% of herbicidal efficacy or phytotoxicity) | 4 (90%-100% of herbicidal efficacy or phytotoxicity) | 4 (90%-100% of herbicidal efficacy or phytotoxicity) | 4 (90%-100% of herbicidal efficacy or phytotoxicity) |  |
| CC(=O)OCC1CN(Cc2ccccc2NS(=O)(=O)C(F)(F)F)C(=O)O1 (stereo not drawn) [Compound 1-37] | 0 (0% of herbicidal efficacy or phytotoxicity) | 0 (0% of herbicidal efficacy or phytotoxicity) | 0 (0% of herbicidal efficacy or phytotoxicity) | 0 (0% of herbicidal efficacy or phytotoxicity) | 3 (70%-89% of herbicidal efficacy or phytotoxicity) | 1 (1%-39% of herbicidal efficacy or phytotoxicity) |  |
| CC1CCCC12CN(Cc1ccccc1NS(=O)(=O)C(F)(F)F)C(=O)O2 (stereo not drawn) [Compound 1-160] | 4 (90%-100% of herbicidal efficacy or phytotoxicity) | 4 (90%-100% of herbicidal efficacy or phytotoxicity) | 1 (1%-39% of herbicidal efficacy or phytotoxicity) | 4 (90%-100% of herbicidal efficacy or phytotoxicity) | 4 (90%-100% of herbicidal efficacy or phytotoxicity) | 4 (90%-100% of herbicidal efficacy or phytotoxicity) |  |
| CC[C@H]1CN(Cc2ccccc2N(C(=O)OCC(C)C)S(=O)(=O)C(F)(F)F)C(=O)O1 [Compound 1-56] | 4 (90%-100% of herbicidal efficacy or phytotoxicity) | 4 (90%-100% of herbicidal efficacy or phytotoxicity) | 1 (1%-39% of herbicidal efficacy or phytotoxicity) | 4 (90%-100% of herbicidal efficacy or phytotoxicity) | 3 (70%-89% of herbicidal efficacy or phytotoxicity) | 4 (90%-100% of herbicidal efficacy or phytotoxicity) |  |
